Columns and labels:
[1] = test system: adult patients with nocturia; assay: Duration of initial period of undisturbed sleep, change from baseline to Day 28 (Part I); assay type: in vivo, human; conditions: for Change from baseline to final visit (Day 28) in duration of initial period of undisturbed sleep, mean / Change from baseline to final visit (Day 28) in duration of initial period of undisturbed sleep, median: ITT, Part I; for median increase in initial period of sleep: baseline to Day 28
Procedure: As used herein, the term “first sleep period” refers to the time elapsed from bedtime to either first void or morning arising.
(§1) All treatments were administered orally once per night approximately 1 hour prior to bedtime; subjects were instructed to limit their fluid intake prior to drug self-administration. […] Randomization was to be stratified by age (<65, ≥65 years) and by the absence/presence of nocturnal polyuria, defined as a ratio of nighttime urine volume/24-hour urine volume 33%. To achieve the desired number of subjects within each stratum, enrollment of subjects in a particular stratum (age and/or presence/absence of nocturnal polyuria) could be halted. If this was necessary, all investigative sites were to be informed in writing at least 1 week in advance to stop screening in a population of subjects.
(§2) The secondary efficacy endpoints were: (1) durability of effect achieved in Part I; (2) change in initial period of undisturbed sleep, defined as the elapsed time in minutes from going to bed with the intention of sleeping to the time of awakening for the first nocturnal void; and (3) change in duration of total sleep time. Additional secondary endpoints were collected, e.g., change in nocturia-specific quality of life as assessed by scores on the International Consultation on Incontinence Modular Questionnaire—Noctuira and the Noctuira Quality of Life Questionnaire, change in quality of sleep as assessed by the global score of the Pittsburgh Sleep Quality Index, and change in overall quality of life as assessed by the short form—12v2. A description of the additional secondary efficacy endpoints and their accompanying data are not provided herein.
Missing values concerning number of nocturnal voids at Day 8, Day 15, Day 22, and Day 28 in Part I were imputed using last observation carried forward (LOCF). Missing values concerning sleep disturbance and urine volume (for average 24-hour urine volume and average nocturnal urine volume) were not imputed.

[2] = test system: adult patients with nocturia; assay: Duration of total sleep time, change from baseline to Day 28 (Part I); assay type: in vivo, human; conditions: final visit (Day 28)
Procedure: as §1, §2
Total sleep time increased in all treatment groups in Part I; however, no pattern was observed by dose of desmopressin. Based on F-tests of effects, computed overall sleep duration and reported overall sleep duration were statistically significant predictors of change from baseline to Day 28 in total sleep time (p<0.0001).

[3] = 10 ug, all males with monitoring
[4] = 10 ug, females over 50 years of age
[5] = 10 ug, females over 65 years of age
[6] = 25 ug, all males with monitoring
[7] = 25 ug, females over 50 years of age
[8] = 25 ug, females over 65 years of age
[9] = 50 ug, all males with monitoring
[10] = 50 ug, females over 50 years of age
[11] = 50 ug, females over 65 years of age
[12] = 100 ug, all males with monitoring
[13] = 100 ug, females over 50 years of age
[14] = 100 ug, females over 65 years of age

SMILES: NC(=O)CC[C@@H]1NC(=O)[C@H](Cc2ccccc2)NC(=O)[C@H](Cc2ccc(O)cc2)NC(=O)CCSSC[C@@H](C(=O)N2CCC[C@H]2C(=O)N[C@H](CCCN=C(N)N)C(=O)NCC(N)=O)NC(=O)[C@H](CC(N)=O)NC1=O [desmopressin]
- Change from baseline to final visit (Day 28) in duration of initial period of undisturbed sleep, mean ([1]; 10 ug, all females): 54 min
- Change from baseline to final visit (Day 28) in duration of initial period of undisturbed sleep, median ([1]; 10 ug, all females): 46 min
- Change from baseline to final visit (Day 28) in duration of initial period of undisturbed sleep, mean ([1]; 10 ug, all groups): 51 min
- Change from baseline to final visit (Day 28) in duration of initial period of undisturbed sleep, median ([1]; 10 ug, all groups): 51 min
- Change from baseline to final visit (Day 28) in duration of initial period of undisturbed sleep, mean [1, 3]: 54 min
- Change from baseline to final visit (Day 28) in duration of initial period of undisturbed sleep, median [1, 3]: 59 min
- Change from baseline to final visit (Day 28) in duration of initial period of undisturbed sleep, mean ([1]; 10 ug, all males): 48 min
- Change from baseline to final visit (Day 28) in duration of initial period of undisturbed sleep, median ([1]; 10 ug, all males): 56 min
- Change from baseline to final visit (Day 28) in duration of initial period of undisturbed sleep, mean [1, 4]: 33 min
- Change from baseline to final visit (Day 28) in duration of initial period of undisturbed sleep, median [1, 4]: 27 min
- Change from baseline to final visit (Day 28) in duration of initial period of undisturbed sleep, mean [1, 5]: 18 min
- Change from baseline to final visit (Day 28) in duration of initial period of undisturbed sleep, median [1, 5]: 46 min
- Change from baseline to final visit (Day 28) in duration of initial period of undisturbed sleep, mean ([1]; 25 ug, all females): 113 min
- Change from baseline to final visit (Day 28) in duration of initial period of undisturbed sleep, median ([1]; 25 ug, all females): 95 min
- Change from baseline to final visit (Day 28) in duration of initial period of undisturbed sleep, mean ([1]; 25 ug, all groups): 83 min
- Change from baseline to final visit (Day 28) in duration of initial period of undisturbed sleep, median ([1]; 25 ug, all groups): 62 min
- Change from baseline to final visit (Day 28) in duration of initial period of undisturbed sleep, mean [1, 6]: 57 min
- Change from baseline to final visit (Day 28) in duration of initial period of undisturbed sleep, median [1, 6]: 54 min
- Change from baseline to final visit (Day 28) in duration of initial period of undisturbed sleep, mean ([1]; 25 ug, all males): 61 min
- Change from baseline to final visit (Day 28) in duration of initial period of undisturbed sleep, median ([1]; 25 ug, all males): 55 min
- median increase in initial period of sleep ([1]; 25 μg): approximately 1 hour
- Change from baseline to final visit (Day 28) in duration of initial period of undisturbed sleep, mean [1, 7]: 122 min
- Change from baseline to final visit (Day 28) in duration of initial period of undisturbed sleep, median [1, 7]: 96 min
- Change from baseline to final visit (Day 28) in duration of initial period of undisturbed sleep, mean [1, 8]: 131 min
- Change from baseline to final visit (Day 28) in duration of initial period of undisturbed sleep, median [1, 8]: 113 min
- Change from baseline to final visit (Day 28) in duration of initial period of undisturbed sleep, mean ([1]; 50 ug, all females): 98 min
- Change from baseline to final visit (Day 28) in duration of initial period of undisturbed sleep, median ([1]; 50 ug, all females): 70 min
- Change from baseline to final visit (Day 28) in duration of initial period of undisturbed sleep, mean ([1]; 50 ug, all groups): 85 min
- Change from baseline to final visit (Day 28) in duration of initial period of undisturbed sleep, median ([1]; 50 ug, all groups): 63 min
- Change from baseline to final visit (Day 28) in duration of initial period of undisturbed sleep, mean [1, 9]: 64 min
- Change from baseline to final visit (Day 28) in duration of initial period of undisturbed sleep, median [1, 9]: 59 min
- Change from baseline to final visit (Day 28) in duration of initial period of undisturbed sleep, mean ([1]; 50 ug, all males): 72 min
- Change from baseline to final visit (Day 28) in duration of initial period of undisturbed sleep, median ([1]; 50 ug, all males): 55 min
- median increase in initial period of sleep ([1]; 50 μg): approximately 1 hour
- Change from baseline to final visit (Day 28) in duration of initial period of undisturbed sleep, mean [1, 10]: 83 min
- Change from baseline to final visit (Day 28) in duration of initial period of undisturbed sleep, median [1, 10]: 63 min
- Change from baseline to final visit (Day 28) in duration of initial period of undisturbed sleep, mean [1, 11]: 42 min
- Change from baseline to final visit (Day 28) in duration of initial period of undisturbed sleep, median [1, 11]: 30 min
- Change from baseline to final visit (Day 28) in duration of initial period of undisturbed sleep, mean ([1]; 100 ug, all females): 114 min
- Change from baseline to final visit (Day 28) in duration of initial period of undisturbed sleep, median ([1]; 100 ug, all females): 93 min
- Change from baseline to final visit (Day 28) in duration of initial period of undisturbed sleep, mean ([1]; 100 ug, all groups): 107 min
- Change from baseline to final visit (Day 28) in duration of initial period of undisturbed sleep, median ([1]; 100 ug, all groups): 96 min
- Change from baseline to final visit (Day 28) in duration of initial period of undisturbed sleep, mean [1, 12]: 108 min
- Change from baseline to final visit (Day 28) in duration of initial period of undisturbed sleep, median [1, 12]: 116 min
- Change from baseline to final visit (Day 28) in duration of initial period of undisturbed sleep, mean ([1]; 100 ug, all males): 100 min
- Change from baseline to final visit (Day 28) in duration of initial period of undisturbed sleep, median ([1]; 100 ug, all males): 101 min
- Change from baseline to final visit (Day 28) in duration of initial period of undisturbed sleep, mean [1, 13]: 108 min
- Change from baseline to final visit (Day 28) in duration of initial period of undisturbed sleep, median [1, 13]: 89 min
- Change from baseline to final visit (Day 28) in duration of initial period of undisturbed sleep, mean [1, 14]: 81 min
- Change from baseline to final visit (Day 28) in duration of initial period of undisturbed sleep, median [1, 14]: 70 min
- Total Sleep Time, Calculated Sleep Time, Change from Baseline, Mean ([2]; 10 μg): 9.7 min
- Total Sleep Time, Calculated Sleep Time, Change from Baseline, Median ([2]; 10 μg): 10.0 min
- Total Sleep Time, Reported Sleep Time, Change from Baseline, Mean ([2]; 10 μg): 7.8 min
- Total Sleep Time, Reported Sleep Time, Change from Baseline, Median ([2]; 10 μg): 10.0 min
- Total Sleep Time, Calculated Sleep Time, Change from Baseline, Mean ([2]; 25 μg): 19.7 min
- Total Sleep Time, Calculated Sleep Time, Change from Baseline, Median ([2]; 25 μg): 15.3 min
- Total Sleep Time, Reported Sleep Time, Change from Baseline, Mean ([2]; 25 μg): 15.9 min
- Total Sleep Time, Reported Sleep Time, Change from Baseline, Median ([2]; 25 μg): 10.0 min
- Total Sleep Time, Calculated Sleep Time, Change from Baseline, Mean ([2]; 50 μg): 24.2 min
- Total Sleep Time, Calculated Sleep Time, Change from Baseline, Median ([2]; 50 μg): 14.2 min
- Total Sleep Time, Reported Sleep Time, Change from Baseline, Mean ([2]; 50 μg): 24.9 min

Reference: patent publication US11963995B2, “Methods comprising desmopressin” (Ferring B.V., priority 2008, dated 2024)
